Assay results: US5376748A, “Nitroquinolone derivatives” (Merck Sharp & Dohme Limited, priority 1992, dated 1994)

System: AMPA receptor
Assay: rat cortical slice, responses to AMPA (apparent equilibrium constant from righthand shift in concentration-response curve)
Type: cell-based
Settings: righthand shift in the AMPA concentration-response curve
Protocol: The compounds useful in this invention potently and selectively block responses to NMDA and/or AMPA in a brain slice from rat cortex, and inhibit the binding of agonists and antagonists to the strychnine-insensitive site present on the NMDA receptor and/or AMPA binding to rat forebrain membranes.
The effects of compounds of the invention on responses to NMDA and AMPA were assessed using the rat cortical slice as described by Wong et al., Proc. Natl. Acad. Sci. USA, 1986, 83, 7104. The apparent equilibrium constant (Kb) was calculated from the righthand shift in the NMDA or AMPA concentration-response curves produced by the compound under test.

Q: With `O=C1Nc2cc(Cl)ccc2CC1[N+](=O)[O-]` (stereo not shown) [Example 2, 7-Chloro-3-nitro-3,4-dihydroquinolin-2-one] as the compound, how does the Kb read?
A: Its Kb is under 150 µM.
